Reference: ChEMBL document CHEMBL4725370, “Discovery of Proteolysis-Targeting Chimera Molecules that Selectively Degrade the IRAK3 Pseudokinase” (J Med Chem, 2020)
Calls of active or inactive are those of the source. No cut-off for these calls is given here.

Columns and labels:
[1] = Octanol/buffer partition coefficient, log D of the compound at pH 7.4 by shake-flask method; type: physicochemical
[2] = Intrinsic apparent permeability across apical to basolateral side in human Caco-2 cells
[3] = molecular target: Interleukin-1 receptor-associated kinase 1 (Homo sapiens, UniProt P51617); experiment: Inhibition of recombinant human N-terminal GST-tagged IRAK1 (194 to 712 residues) expressed in baculovirus expression system using 5-FAM-KKKVSRSGLYRSPSMPENLNRPR-COOH as substrate measured after 240 mins by mobility shift assay
[4] = molecular target: T1, Interleukin-1 receptor-associated kinase 3 (Homo sapiens, UniProt Q9Y616); experiment: Inhibition of kinase tracer 236 binding to recombinant human full-length GST-tagged IRAK3 expressed in insect cells by Lanthascreen Eu kinase binding assay
T1 sequence (Q9Y616 whole entry): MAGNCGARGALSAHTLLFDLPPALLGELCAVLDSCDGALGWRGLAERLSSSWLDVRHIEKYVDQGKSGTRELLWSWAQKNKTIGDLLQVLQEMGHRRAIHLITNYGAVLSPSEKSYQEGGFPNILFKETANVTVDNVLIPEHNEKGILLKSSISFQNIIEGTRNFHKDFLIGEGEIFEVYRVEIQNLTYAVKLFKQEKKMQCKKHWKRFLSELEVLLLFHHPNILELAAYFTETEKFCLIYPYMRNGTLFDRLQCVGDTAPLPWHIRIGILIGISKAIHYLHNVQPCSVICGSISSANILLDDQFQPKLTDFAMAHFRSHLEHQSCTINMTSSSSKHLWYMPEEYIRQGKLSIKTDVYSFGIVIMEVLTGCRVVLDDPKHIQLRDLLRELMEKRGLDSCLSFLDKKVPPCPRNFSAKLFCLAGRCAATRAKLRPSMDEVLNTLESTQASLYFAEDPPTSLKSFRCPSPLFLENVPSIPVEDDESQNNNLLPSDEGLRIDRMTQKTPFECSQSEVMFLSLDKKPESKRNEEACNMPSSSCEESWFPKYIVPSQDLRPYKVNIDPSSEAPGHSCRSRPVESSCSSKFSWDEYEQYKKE

[5] = molecular target: T2, Interleukin-1 receptor-associated kinase 4 (Homo sapiens, UniProt Q9NWZ3); experiment: Inhibition of recombinant human full-length His-tagged IRAK4 expressed in baculovirus expression system using 5-FAM-IPTSPITTTYFFFKKK-COOH as substrate measured after 240 mins by mobility shift assay
T2 sequence (Q9NWZ3 whole entry): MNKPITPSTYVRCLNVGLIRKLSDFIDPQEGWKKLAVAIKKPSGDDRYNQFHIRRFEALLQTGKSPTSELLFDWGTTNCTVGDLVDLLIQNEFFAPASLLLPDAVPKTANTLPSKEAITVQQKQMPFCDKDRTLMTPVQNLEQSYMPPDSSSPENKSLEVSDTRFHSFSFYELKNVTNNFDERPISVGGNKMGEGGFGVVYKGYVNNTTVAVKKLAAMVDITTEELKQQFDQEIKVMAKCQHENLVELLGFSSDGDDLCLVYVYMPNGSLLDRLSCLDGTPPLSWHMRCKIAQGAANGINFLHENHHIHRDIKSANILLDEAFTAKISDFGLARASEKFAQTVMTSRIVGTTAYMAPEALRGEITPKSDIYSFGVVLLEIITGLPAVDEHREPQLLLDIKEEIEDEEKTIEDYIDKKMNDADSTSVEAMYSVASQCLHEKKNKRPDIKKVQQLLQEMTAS

[6] = Efflux ratio of apparent permeability in human Caco-2 cells
[7] = molecular target: T3, Serine/threonine-protein kinase haspin (Homo sapiens, UniProt Q8TF76); experiment: Inhibition of GSG2 (unknown origin)
T3 sequence (Q8TF76 whole entry): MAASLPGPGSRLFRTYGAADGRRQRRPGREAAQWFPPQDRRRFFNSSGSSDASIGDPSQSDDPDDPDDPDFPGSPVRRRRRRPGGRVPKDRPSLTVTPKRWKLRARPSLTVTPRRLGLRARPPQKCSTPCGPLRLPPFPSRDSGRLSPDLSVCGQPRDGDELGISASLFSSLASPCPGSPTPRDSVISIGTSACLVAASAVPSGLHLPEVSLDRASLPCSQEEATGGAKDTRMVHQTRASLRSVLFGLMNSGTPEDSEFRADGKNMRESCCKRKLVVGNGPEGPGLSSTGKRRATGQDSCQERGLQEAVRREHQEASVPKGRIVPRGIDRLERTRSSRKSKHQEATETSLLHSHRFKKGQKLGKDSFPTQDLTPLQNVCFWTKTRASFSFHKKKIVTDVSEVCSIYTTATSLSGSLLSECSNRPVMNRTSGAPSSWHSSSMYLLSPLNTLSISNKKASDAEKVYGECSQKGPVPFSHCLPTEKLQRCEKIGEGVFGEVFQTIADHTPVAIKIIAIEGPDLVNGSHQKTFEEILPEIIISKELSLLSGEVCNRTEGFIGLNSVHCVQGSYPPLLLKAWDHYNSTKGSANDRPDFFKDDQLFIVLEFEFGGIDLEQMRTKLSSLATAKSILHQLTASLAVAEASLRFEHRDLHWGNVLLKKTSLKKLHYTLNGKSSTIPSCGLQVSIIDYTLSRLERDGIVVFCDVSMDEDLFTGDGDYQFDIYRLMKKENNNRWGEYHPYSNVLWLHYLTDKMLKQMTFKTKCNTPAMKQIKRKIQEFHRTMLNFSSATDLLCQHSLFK

[8] = molecular target: Interleukin-1 receptor-associated kinase 3 (Homo sapiens) (UniProt Q9Y616); experiment: Inhibition of IRAK3 (unknown origin) at 0.1 uM relative to control
[9] = molecular target: Serine/threonine-protein kinase haspin (Homo sapiens) (UniProt Q8TF76); experiment: Inhibition of GSG2 (unknown origin) at 0.1 uM relative to control
[10] = molecular target: Cyclin-C/Cyclin-dependent kinase 19 (Homo sapiens) (UniProt Q9BWU1+P24863); experiment: Inhibition of CDK11/cyclin C (unknown origin) at 0.1 uM relative to control; type: protein-complex assay
[11] = molecular target: CDK8/Cyclin C (Homo sapiens) (UniProt P49336+P24863); experiment: Inhibition of CDK8/cyclin C (unknown origin) at 0.1 uM relative to control; type: protein-complex assay
Protein cereblon = Protein cereblon (Homo sapiens, UniProt Q96SW2); experiment: Inhibition of CRBN (unknown origin)
[12] = molecular target: T4, Protein cereblon/Interleukin-1 receptor-associated kinase 3 (Homo sapiens, UniProt Q9Y616+Q96SW2); experiment: Protac activity at CRBN/IRAK3 in LPS-induced human THP1 cells assessed as induction of IRAK3 degradation after 16 hrs by Western blot analysis; type: cell-based; conditions: thp-1
Target sequence in this assay (Q96SW2 whole entry, one chain of several): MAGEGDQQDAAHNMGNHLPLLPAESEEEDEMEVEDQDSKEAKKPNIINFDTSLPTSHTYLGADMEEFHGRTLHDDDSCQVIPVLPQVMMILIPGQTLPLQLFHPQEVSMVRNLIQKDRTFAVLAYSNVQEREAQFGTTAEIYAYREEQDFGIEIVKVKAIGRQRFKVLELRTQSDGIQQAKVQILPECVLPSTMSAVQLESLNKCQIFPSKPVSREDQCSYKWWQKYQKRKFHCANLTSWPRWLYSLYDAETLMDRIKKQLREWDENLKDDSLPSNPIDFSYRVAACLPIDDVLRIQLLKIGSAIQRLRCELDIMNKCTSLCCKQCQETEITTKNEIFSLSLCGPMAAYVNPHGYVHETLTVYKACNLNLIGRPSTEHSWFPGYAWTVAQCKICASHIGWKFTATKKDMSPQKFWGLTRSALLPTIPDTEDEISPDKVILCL

[13] = molecular target: T4, Protein cereblon/Interleukin-1 receptor-associated kinase 3; experiment: Protac activity at CRBN/IRAK3 in human THP1 cells assessed as induction of IRAK3 degradation at 0.1 to 10 uM measured after 24 hrs by Western blot analysis; type: cell-based; conditions: THP-1, dose microM 0.1-10, time […]
Target sequence in this assay (Q96SW2 whole entry, looked up, one chain of several): as the sequence (Q96SW2 whole entry, one chain of several) above

[14] = molecular target: T4, Protein cereblon/Interleukin-1 receptor-associated kinase 3; experiment: Protac activity at CRBN/IRAK3 in human PBMC derived primary macrophages assessed as induction of IRAK3 degradation at 0.3 uM measured after 8 to 32 hrs by Western blot analysis; type: tissue-based; conditions: Primary macrophage, time hrs 8-32
Target sequence in this assay (Q96SW2 whole entry, looked up, one chain of several): as the sequence (Q96SW2 whole entry, one chain of several) above

[15] = molecular target: T4, Protein cereblon/Interleukin-1 receptor-associated kinase 3; experiment: Protac activity at CRBN/IRAK3 in human PBMC derived primary macrophages assessed as induction of IRAK3 degradation at 0.3 uM preincubated for 8 hrs followed by LPS-stimulation and measured after 8 to 32 hrs by Western blot analysis; type: tissue-based; conditions: Primary macrophage
Target sequence in this assay (Q96SW2 whole entry, looked up, one chain of several): as the sequence (Q96SW2 whole entry, one chain of several) above

Sequence of Interleukin-1 receptor-associated kinase 1 (P51617 whole entry, the tested form may be a part): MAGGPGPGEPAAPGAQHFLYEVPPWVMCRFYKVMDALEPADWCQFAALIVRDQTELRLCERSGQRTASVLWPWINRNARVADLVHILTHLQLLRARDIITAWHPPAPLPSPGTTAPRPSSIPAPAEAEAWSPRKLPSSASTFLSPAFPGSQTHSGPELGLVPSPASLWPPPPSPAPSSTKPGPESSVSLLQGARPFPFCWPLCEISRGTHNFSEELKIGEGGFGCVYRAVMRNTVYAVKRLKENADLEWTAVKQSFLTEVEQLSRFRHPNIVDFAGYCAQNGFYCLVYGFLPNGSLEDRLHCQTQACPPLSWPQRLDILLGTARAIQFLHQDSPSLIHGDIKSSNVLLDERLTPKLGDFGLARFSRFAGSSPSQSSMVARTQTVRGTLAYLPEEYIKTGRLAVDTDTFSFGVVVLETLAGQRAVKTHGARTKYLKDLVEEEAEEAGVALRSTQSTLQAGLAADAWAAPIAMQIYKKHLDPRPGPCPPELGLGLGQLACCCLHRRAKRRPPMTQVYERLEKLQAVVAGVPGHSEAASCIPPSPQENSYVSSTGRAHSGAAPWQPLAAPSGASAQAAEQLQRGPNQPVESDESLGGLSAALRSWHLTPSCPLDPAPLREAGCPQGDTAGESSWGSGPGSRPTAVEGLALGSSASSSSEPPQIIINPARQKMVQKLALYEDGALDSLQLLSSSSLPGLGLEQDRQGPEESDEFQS
Sequence of Protein cereblon (Q96SW2 whole entry): as the sequence (Q96SW2 whole entry, one chain of several) above

logD [1]	Papp A→B [2] [×10⁻⁶ cm/s]	IC50 [3] [nM]	IC50 [4] [nM]	IC50 [5] [nM]	efflux ratio [6]	IC50 [7] [nM]	inhibition [8] [%]	inhibition [9] [%]	inhibition [10] [%]	inhibition [11] [%]	IC50 (Protein cereblon) [µM]	DC50 [12] [µM]	Activity [13]	Activity [14]	Activity [15]	SMILES
2.3	12	1400	4	840	4.3											CC(=O)N1CCN([C@H]2CC[C@@H](Nc3ncnc4[nH]cc(C(C)C)c34)CC2)CC1
			6			150	91	55	51	39						CC(=O)N1CCN([C@H]2CC[C@@H](Nc3ncnn4ccc(C(C)C)c34)CC2)CC1
3.7		3400	4	> 1000							> 12	> 10	inactive	inactive	inactive	CC(C)c1ccn2ncnc(N[C@H]3CC[C@@H](N4CCN(C(=O)CCC(=O)N5CCC(CCN6CCN(c7ccc8c(c7)C(=O)N(C7CCC(=O)N(C)C7=O)C8=O)CC6)CC5)CC4)CC3)c12 (stereo partly specified)
